Results reported in patent US20080241257A1, “Biodegradable Nanoparticles Incorporating Highly Hydrophilic Positively Charged Drugs” (THE BOARD OF TRUSTEES OF THE UNIVERSITY OF ILLINOIS, priority 2003, published 2008).

Tested on: M. tuberculosis Erdman
Test: M. tuberculosis chronic infection mouse model, CFU in the lungs
Assay type: in vivo, BALB/c mice

In the case of `[H]/N=C(/N)N[C@H]1[C@H](O)[C@@H](O)[C@H](O[C@@H]2O[C@@H](C)[C@](O)(C=O)[C@H]2O[C@@H]2O[C@@H](CO)[C@H](O)[C@@H](O)[C@@H]2NC)[C@@H](N/C(N)=N\[H])[C@@H]1O` [SM, streptomycin], the “log CFU in the lungs” value (100 mg/kg injected subcutaneously (solution in water) daily for 3 weeks, control 6.88) is reported as 6.13 log CFU and the “reduction in growth of the TB bacilli compared to the control group” value (injected subcutaneously, 100 mg/kg daily 3 weeks, p<0.01) is reported as “one”.
